Data set [1] has as its system ICR male mice. The data set can be described thus: Evaluation of activity to improve learning and/or memory using Morris water maze. The format is in vivo. The procedure:
Evaluation of Activity to Improve Learning and/or Memory Using Morris Water Maze
In experiments, ICR male mice of 6 weeks old were used. Using Morris water maze as an experiment apparatus, ability of learning and memory of space was evaluated based on the latency until a mouse escapes to a platform arranged in a pool as an index. One trial was maximally 120 seconds, and 1 session was composed of three trials in which each mouse was made to swim in the pool from three different positions. Average time needed for the escape was calculated and evaluation was made based thereon. On the first day (the first session), no drug and nothing were administered. From the second session (Day 2), Compound 1, Compound 8 or a solvent was administered. Trial was repeated for 5 days (5 sessions).
The dose of Compound 1 was 10, 30 or 100 μg/kg, and the dose of Compound 8 was 100 μg/kg. Compound 1, Compound 8 or saline which was the solvent was subcutaneously administered 30 minutes before the first trial of each session. The data was subjected to analysis of variance and significance was evaluated according to Fisher's PLSD test. The cases where P<0.05 was evaluated as significant.

Data set [2] has as its system ICR male mice. The data set can be described thus: Test of learning of Step-Down type passive avoidance (MK-801-induced learning disability and memory disorder). The format is in vivo. Conditions: test 24 hours after training, FIG. 2. Here is the method: In experiments, ICR male mice of 6 weeks old were used. The experiment apparatus comprised a plastic box sizing 25×25×30 cm (width×depth×height), a stainless steel grid for giving electrical shock, which was laid on the floor of the box, and a wooden platform sizing 4.5×4.5×3.0 cm (width×depth×height) placed on a corner on the floor grid.
Sixty minutes before the training trial, 100 or 300 μg/kg of Compound 1, or its solvent, saline, was subcutaneously administered. Thirty minutes later, 0.1 mg/kg of MK-801 which is a non-competitive antagonist of NMDA receptor, which is a compound that causes learning disability and/or memory disorder was intraperitoneally administered. Training trial was carried out by placing a mouse on the platform, and the time period until the mouse stepped down to the floor grid, that is, the Step-Down latency, was measured. Simultaneously with the attaching all of the feet of the mouse to the floor, an electrical shock of 0.6 mA was given for 2 seconds, thereby making the mouse to learn that an electrical shock would be given if the mouse would stepped down to the floor.
Test trials were carried out 24 hours after the training trials. Each mouse was again placed on the platform, and the Step-Down latency was measured for maximally 300 seconds.

The test system of data set [3] is patients suffering from dementia. Conditions: cited from earlier work.

“Also recorded” adds a separate entry of the source.

`CN1CC[C@@]2(c3cccc(O)c3)Cc3nc4ccccc4cc3C[C@H]2C1` [Compound 1, (4aR, 12aR)-2-methyl-4a-(3-hydroxyphenyl)-1,2,3,4,4a,5,12,12a-octahydro-quinoline[2,3-g]isoquinoline]: the “time period (latency) required for escaping to the platform; ability of learning and memory of space” value in the data set on ICR male mice [1] (Compound 1 10, 30 or 100 μg/kg subcutaneously 30 minutes before first trial of each session, sessions 2-5, vs saline, FIG. 1) is “shortened dose-dependently from the second session; also recorded: ability of learning and memory of space was improved”. The “Step-Down latency in test trials: reversal of the shortening by MK-801” value in the data set on ICR male mice [2] (Compound 1 100 or 300 μg/kg s.c. 60 min before training, MK-801 0.1 mg/kg i.p. 30 min later, vs MK-801 alone) was “significantly reduced; also recorded: recovered”.
Take `C[C@]12N[C@H](Cc3ccccc31)c1ccccc12` [MK-801]: in the data set on ICR male mice [2] (MK-801 alone 0.1 mg/kg i.p., vs control group (solvent alone)), the “Step-Down latency in test trials (passive avoidance reaction)” value was “significantly shorter than that of the control group; also recorded: significantly suppressed”.
Regarding `COc1cc2c(cc1OC)C(=O)C(CC1CCN(Cc3ccccc3)CC1)C2` (stereo not shown) [Aricept], in data set [3] (dementia in light to medium degree), the “improvement in patients suffering from dementia” value is on record as “improvement is observed in about half cases”.
For `Nc1c2c(nc3ccccc13)CCCC2` [tacrine], the side effects entry in data set [3] (clinical use) was “hepatic toxicity and choline-related side effects”. Further, the “improvement of intellectual function in cases in which the drug is administered” value in data set [3] (dementia patients) is given as “improvement of intellectual function to a certain degree is observed in about half of the cases”.
For the compound `CN1CC[C@@]2(c3cccc(O)c3)Cc3nc4c(Br)cc(Br)cc4cc3C[C@@H]2C1` [Compound 8, (+)-7,9-dibromo-4a-(3-hydroxyphenyl)-2-methyl-1,2,3,4,4a,5,12,12a-octahydro-quinoline[2,3 g]isoquinoline], in the data set on ICR male mice [1] (Compound 8 100 μg/kg subcutaneously 30 minutes before first trial of each session, vs saline, FIG. 3), the “latency required for escaping to the platform; ability of learning and memory of space” value was “shortened”.
